Test results published in US20220009987A9, “HUMAN RESISTIN COMPOSITIONS AND METHODS OF TREATING TLR4-MEDIATED DISEASE AND INFECTION” (THE REGENTS OF THE UNIVERSITY OF CALIFORNIA, priority 2017, published 2022).

Key:
human TLR4 = human TLR4 (Homo sapiens, UniProt O00206); assay: Pull-down assay with His-tagged human TLR4; format: binding; conditions: pre-incubation of His-TLR4 with 500 ng/ml N-peptide, anti-Flag blot
Procedure: Pull-down Assay. 1 μg/ml protein His-tagged MBP, human TLR4 and human CAP1 were added to nickel-nitrilotriacetic acid-agarose beads (Invitrogen) in binding buffer (50 mM NaH2PO4, 500 mM NaCl, 10 mM Imidazole, pH 8.0) and mixed for 1 hour at 4° C., followed by washing and 1 h incubation at 4° C. with hRetn (E. coli-derived, Peprotech or 293T cell-derived, LifeSpan Biosciences) in binding buffer. Beads were washed in wash buffer (50 mM NaH2PO4, 500 mM NaCl, 20 mM Imidazole, pH 8.0), and complex protein eluted with elution buffer (50 mM NaH2PO4, 500 mM NaCl, 250 mM Imidazole, pH 6.0). His-MBP, His-TLR4 and His-CAP1 were detected by anti-His antibody (Abcam), and hRetn was detected by anti-hRetn antibody (donated by Mitchell Lazar) by Western Blot. For the N-peptide binding experiment, 1 μg/ml His-tagged human TLR4 with 500 ng/ml N-peptide or 10% TFE control was added to the beads in binding buffer and mixed for 30 min at 4° C., followed by co-immunoprecipitation using 1 μg/ml Flag-hRetn (LifeSpan Biosciences), anti-His or anti-Flag (Sigma).

human PBMCs = assay: Human PBMC functional assay, LPS-induced cytokine secretion (ELISA); format: cell-based; conditions: human PBMC, pre-treatment then LPS 100 ng/mL
Procedure: (§1) Human PBMCs. Human buffy coat was purchased from Zen-bio. Buffy coat was overlaid on top of Histopaque-1077 and spun at 700g at 25° C. with no brake and PBMCs were recovered from the interphase. PBMCs were plated in 96-well plates and stimulated with mammalian-derived human resistin (1 μg/mL, LifeSpan Biosciences) or hRetn N-peptide (1 μg/mL). After 24 hours, ultrapure LPS (100 ng/mL, Invivogen) was added and supernatants recovered for ELISA at 24 hours. Where indicated, cells were incubated for 4 hours with STAT3 (5, 15-DPP, 50 μM) or TBK1 (BX-795, 1 μM) inhibitors prior to hRetn treatment. For the hRetn competitive binding assay, 1×10^6 cells were incubated with recombinant hRetn (0.5 μg), washed in PBS then incubated with 0.5 μg LPS-biotin (incubations were 30 minutes on ice). Cells were washed in FACS buffer, treated with Fc block, and stained with BV605-conjugated streptavidin and α-human primary antibodies: CD14 (clone M5E2), CD11 b (clone M1/70) and MD2/TLR4 (clone HTA125) purchased from Affymetrix.
Cytokine Quantification. Sandwich ELISAs were performed using capture and biotinylated antibodies for human resistin (Peprotech), IL-10 and TNFα (BD Biosciences) according to manufacturer's instructions. Detection was performed with streptavidin-peroxidase (Jackson ImmunoResearch) and TMB peroxidase substrate (BD Biosciences), followed by addition of 2N H2SO4. Optical density (OD) was captured at 450 nm. Samples were compared to serial-fold dilution of recombinant protein. For Luminex, inflammatory cytokine kits (Affymetrix) were run according to manufacturer's instructions and quantified on Luminex MagPix (Luminex Corp.). For cytokine bead array, cytokine kits from BD Bioscience were run according to manufacturer's instructions on BD LSRII and analyzed using FCAP Array Software.

CD14+CD11b+ monocytes = assay: Competitive resistin/LPS binding assay on human PBMCs (flow cytometry); format: cell-based; conditions: for LPS binding to CD14+CD11b+ monocytes: pre-incubation before LPS-biotin, on ice
Procedure: as §1

Chain of human TLR4 (O00206 24-839): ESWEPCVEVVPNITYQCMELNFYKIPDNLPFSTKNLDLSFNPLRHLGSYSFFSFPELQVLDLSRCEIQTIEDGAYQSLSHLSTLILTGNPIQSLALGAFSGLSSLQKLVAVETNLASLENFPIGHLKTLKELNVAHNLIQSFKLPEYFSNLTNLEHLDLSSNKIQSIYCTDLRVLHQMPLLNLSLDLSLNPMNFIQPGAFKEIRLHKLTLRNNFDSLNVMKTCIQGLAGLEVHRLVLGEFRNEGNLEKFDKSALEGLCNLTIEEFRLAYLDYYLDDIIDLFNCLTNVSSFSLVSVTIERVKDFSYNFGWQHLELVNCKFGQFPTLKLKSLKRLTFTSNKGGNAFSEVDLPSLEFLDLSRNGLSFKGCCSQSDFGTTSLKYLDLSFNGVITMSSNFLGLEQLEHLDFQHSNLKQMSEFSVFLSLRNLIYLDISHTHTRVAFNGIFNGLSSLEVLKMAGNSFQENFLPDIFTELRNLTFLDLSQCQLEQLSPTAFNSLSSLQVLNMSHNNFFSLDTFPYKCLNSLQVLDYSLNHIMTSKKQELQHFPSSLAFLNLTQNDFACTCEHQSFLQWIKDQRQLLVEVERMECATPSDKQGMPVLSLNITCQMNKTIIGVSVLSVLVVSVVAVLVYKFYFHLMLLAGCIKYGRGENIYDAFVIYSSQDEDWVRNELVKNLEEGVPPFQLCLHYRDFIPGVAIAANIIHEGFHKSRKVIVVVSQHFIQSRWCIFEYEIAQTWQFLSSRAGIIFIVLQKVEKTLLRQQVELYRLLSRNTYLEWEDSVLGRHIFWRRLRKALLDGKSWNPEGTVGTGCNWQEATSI

Compound | competitive inhibition of Flag-tagged full-length hRetn binding to hTLR4 (human TLR4) | LPS-induced TNFα secretion (human PBMCs) | LPS-promoted surface MD2/TLR4 complex formation (CD14+CD11b+ monocytes; human PBMC, flow cytometry) | LPS binding to CD14+CD11b+ monocytes (CD14+CD11b+ monocytes) | LPS binding to CD14+CD11b+ monocytes (CD14+CD11b+ monocytes; listed as N-pep) | IL-10 expression after LPS (human PBMCs)
hRetn N-peptide: synthesized hRetn N-terminal peptide (1-23 a.a.), SEQ ID NO: 2 (MEEAINERIQEVAGSLIFRAISS) (listed as Homo sapiens) | sufficient to abrogate binding of full-length hRetn | significantly more efficient at suppressing LPS-induced TNFα than full-length hRetn | abrogated | inhibited LPS binding | abrogated the binding of LPS in human PMBCs similar to full-length hRetn | 
O=C(NCCCNc1nc(Nc2cccc(NC(=O)N3CCCC3)c2)ncc1I)c1cccs1 [TBK1 inhibitor, BX-795, reference compound] |  | significantly reduced LPS-induced TNFα |  |  |  | increased IL-10 expression
